Experimental data taken from the supplement of paper PMC10307832.

Tests used:
Assay in all cases: relative viability (nuclei count vs DMSO), 5 days (fraction); higher = more cells survive
AZ505 + Olaparib = compound: C1CCC(CC1)N(CCNCCC2=C3C(=C(C=C2)O)NC(=O)CO3)C(=O)CCNCCC4=CC(=C(C=C4)Cl)Cl [AZ505] + O=C(c1cc(Cc2n[nH]c(=O)c3ccccc23)ccc1F)N1CCN(C(=O)C2CC2)CC1 [Olaparib] (partner 8 µM)
Procedure, shortened: (§1)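 Nuclei were stained with Hoechst during a one-step fixation (final 0.05% Triton X-100, 1% formaldehyde, 1 ug/ml Hoechst) carried out 5 days after dosing, then counted on 4× images. The cells, lung cancer lines in 1536-well plates, had been dosed by pin tool the day after seeding with one drug alone or a fixed anchor-drug dose plus five library-drug doses (not always all listed) in √10 steps. Relative viability is the nuclei count in treated wells divided by that in vehicle wells, and each value is the median of duplicate plates.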

Dactolisib + Linsitinib = compound: Cn1c(=O)n(-c2ccc(C(C)(C)C#N)cc2)c2c3cc(-c4cnc5ccccc5c4)ccc3ncc21 [Dactolisib] + C[C@]1(O)C[C@@H](c2nc(-c3ccc4ccc(-c5ccccc5)nc4c3)c3c(N)nccn32)C1 [Linsitinib] (partner 1 µM)
Procedure, shortened: as §1

AZ505 + Alpelisib = compound: C1CCC(CC1)N(CCNCCC2=C3C(=C(C=C2)O)NC(=O)CO3)C(=O)CCNCCC4=CC(=C(C=C4)Cl)Cl [AZ505] + Cc1nc(NC(=O)N2CCC[C@H]2C(N)=O)sc1-c1ccnc(C(C)(C)C(F)(F)F)c1 [Alpelisib] (partner 2 µM)
Procedure, shortened: as §1

Dactolisib + Bortezomib = compound: Cn1c(=O)n(-c2ccc(C(C)(C)C#N)cc2)c2c3cc(-c4cnc5ccccc5c4)ccc3ncc21 [Dactolisib] + CC(C)C[C@H](NC(=O)[C@H](Cc1ccccc1)NC(=O)c1cnccn1)B(O)O [Bortezomib] (partner 0.002 µM)
Procedure, shortened: as §1

| Cell Line | relative viability (AZ505 + Olaparib; first compound 0.08 µM) | relative viability (AZ505 + Olaparib; first compound 0.253 µM) | relative viability (AZ505 + Olaparib; first compound 0.8 µM) | relative viability (AZ505 + Olaparib; first compound 2.53 µM) | relative viability (AZ505 + Olaparib; first compound 8 µM) | relative viability (Dactolisib + Linsitinib; first compound 0.002 µM) | relative viability (Dactolisib + Linsitinib; first compound 0.006325 µM) | relative viability (Dactolisib + Linsitinib; first compound 0.02 µM) | relative viability (Dactolisib + Linsitinib; first compound 0.06325 µM) | relative viability (Dactolisib + Linsitinib; first compound 0.2 µM) | relative viability (AZ505 + Alpelisib; first compound 0.08 µM) | relative viability (AZ505 + Alpelisib; first compound 0.253 µM) | relative viability (AZ505 + Alpelisib; first compound 0.8 µM) | relative viability (AZ505 + Alpelisib; first compound 2.53 µM) | relative viability (AZ505 + Alpelisib; first compound 8 µM) | relative viability (Dactolisib + Bortezomib; first compound 0.002 µM) | relative viability (Dactolisib + Bortezomib; first compound 0.006325 µM) | relative viability (Dactolisib + Bortezomib; first compound 0.02 µM) | relative viability (Dactolisib + Bortezomib; first compound 0.06325 µM) | relative viability (Dactolisib + Bortezomib; first compound 0.2 µM) |
| --- | --- | --- | --- | --- | --- | --- | --- | --- | --- | --- | --- | --- | --- | --- | --- | --- | --- | --- | --- | --- |
| RERF-LC-KJ | 0.947 | 0.934 | 0.995 | 0.91 | 0.842 | 0.86 | 0.908 | 0.849 | 0.646 | 0.495 | 0.775 | 0.767 | 0.741 | 0.901 | 0.863 | 1.17 | 0.978 | 1.01 | 0.641 | 0.574 |
| NCI-H23 | 0.256 | 0.362 | 0.305 | 0.364 | 0.337 | 0.553 | 0.598 | 0.368 | 0.243 | 0.287 | 0.617 | – | 0.653 | 0.644 | 0.845 | 1.04 | 0.924 | 0.798 | 0.247 | 0.294 |
| HCC-366 | 0.277 | 0.439 | 0.315 | 0.412 | 0.406 | 0.561 | 0.453 | 0.487 | 0.185 | 0.0961 | 0.306 | 0.379 | 0.326 | 0.411 | 0.385 | 0.963 | 1.09 | 0.988 | 0.593 | 0.481 |
| EMC-BAC-2 | 0.453 | 0.541 | 0.487 | 0.524 | 0.437 | 0.872 | 0.806 | 0.798 | 0.591 | 0.475 | 0.718 | 0.759 | 0.696 | 0.761 | 0.831 | 1.11 | 1.06 | 1.09 | 0.859 | 0.63 |
| NCI-H2405 | 0.742 | – | 0.758 | 0.788 | 0.828 | 0.936 | 0.76 | 0.755 | 0.323 | 0.275 | 0.4 | 0.426 | 0.503 | 0.384 | 0.508 | 1 | 0.97 | 0.96 | 0.892 | 0.628 |
| EPLC-272H | 0.638 | 0.664 | 0.654 | 0.782 | 0.628 | 1.16 | 1.09 | 0.969 | 0.575 | 0.491 | 0.76 | 0.719 | 0.679 | 0.789 | 0.958 | 0.899 | 0.903 | 0.721 | 0.693 | 0.496 |
| EBC-1 | 0.644 | 0.693 | 0.673 | 0.69 | 0.642 | 0.974 | 0.756 | 0.863 | 0.202 | 0.177 | 0.815 | 0.806 | 0.893 | 0.857 | 0.66 | 0.625 | 0.523 | 0.373 | 0.216 | 0.191 |
| NCI-H1915 | 0.259 | 0.272 | 0.247 | 0.272 | 0.257 | 1.11 | 1.13 | 1.11 | 0.901 | 0.631 | 1.01 | 1.1 | 0.977 | 0.986 | 1.08 | 1.06 | 0.931 | 0.965 | 0.902 | 0.737 |
